This note sets out measurements from patent publication US9173892B2, “Acadesine derivatives, products and compositions including same, therapeutic uses thereof, and methods for synthesizing same” (Universite Nice Sophia Antipolis, priority 2011, dated 2015).

Like-named read-outs stand apart in the source and are kept apart here.

In series [1] the test system is K562 cells. Put plainly: cell viability (XTT) of imatinib-sensitive K562 cells. It is filed as cell-based, human. To be noted: K562; for viability at 500 µM / IC50: Homo sapiens, XTT; for viability at 500 µM: 0.5 mM, read-out: percentage of viable cells; for IC50: dose-response 5, 10, 25 and 50 μM; for efficacy in dose-response experiment (number of viable cells): 5, 10, 25 and 50 μM, compounds effective at concentrations as low as 5 μM. As to the method: (§1) The K562 leukemic cell line is obtained from the pleural effusion of a patient with CML. This line is a good model for studying this disease. […] The K562 and ImaR cells are cultivated at 37° C. under 5% CO2 in an RPMI 1640 medium containing 5% fetal bovine serum and supplemented with sodium pyruvate and antibiotics (penicillin-streptomycin).
(§2) FIGS. 1 to 4 reflect the study of the cell viability.
(§3) After the addition of XTT reagent, the absorbance is measured at 490 nm.
as §3, §3
After adding XTT reagent, the absorbance is measured at 490 nm.

Series [2] relates to ImaR cells. The series is described as follows: cell viability (XTT) of imatinib-resistant ImaR cells. The note with it: for efficacy in dose-response experiment (number of viable cells): 5, 10, 25 and 50 μM, compounds effective at concentrations as low as 5 μM; for viability at 500 µM / IC50: Homo sapiens, XTT; for viability at 500 µM: 0.5 mM, 24 hours, read-out: percentage of viable cells; for IC50: dose-response 5, 10, 25 and 50 μM, 24 or 48 hours, Example 1 (Table 1 codes). It is filed as cell-based, human. As to the method: as §1, §2, §3, §3
(Tetrazolium assays rely on reduction of a dye to a coloured formazan, in cell work by metabolically active cells.)

Series [3] concerns K562 cells. Put plainly: flow cytometry analysis of the cell cycle, K562 cells. It is filed as cell-based, human. The note with it: for proportion of cells in the G2/M phase: 24 hours, 82, 86, 112 at 2.5 μM, 15, 23, 191, 49 at 10 μM. The protocol:
The x-axis of the graph of FIG. 9 corresponds to the quantity of DNA marked with propidium iodide while the y-axis corresponds to the number of cells. […] The nuclei are marked with propidium iodide, then the proportion of cells in the different phases of the cell cycle (subG1, G0/G1, S, G2/M) is determined.
In general terms: In flow cytometry, cells or beads pass a laser one at a time.

For series [4], the system named is ImaR cells. Put plainly: flow cytometry analysis of the cell cycle, ImaR cells. The series is classed as cell-based, human. The note with it: for proportion of cells in the G2/M phase: 24 hours, 82, 86, 112 at 2.5 μM, 15, 23, 191, 49 at 10 μM. As to the method: The x-axis of the graph of FIG. 9 corresponds to the quantity of DNA marked with propidium iodide while the y-axis corresponds to the number of cells. […] The nucleii are marked with propidium iodide, then the proportion of cells in the different phases of the cell cycle (subG1, G0/G1, S, G2/M) is determined.

Series [5] concerns caspase-9. Put plainly: caspase-9 activity (Ac-LEHD-AMC) in K562 cells. It is filed as cell-based, human. As to the method:
(§4) The cells are lyzed and the caspase-9 activities are measured using 10 μg of proteins and Ac-LEHD-AMC. The fluorescence emission at 460 nm resulting from the release of AMC is then recorded.

For series [6], the system named is caspase-9. The series is described as follows: caspase-9 activity (Ac-LEHD-AMC) in ImaR cells. The note with it: 24 hours, imatinib 3 μM, 112 2.5 μM, 15 and 23 10 μM. The series is classed as cell-based, human. The protocol:
as §4

Series [7] concerns K562 cells. Put plainly: western blot of apoptosis and autophagy markers, K562 cells. The series is classed as cell-based, human. To be noted: for expression of p62/SQSTM1 / LC3 cleavage (LC3-I into LC3-II): AICAR 1 mM; for expression of p62/SQSTM1: 82, 86, 112 at 2.5 μM, 15, 23, 191 at 10 μM; for LC3 cleavage (LC3-I into LC3-II): 82, 86 at 2.5 μM, 15, 23, 191, 49 at 10 μM; for type of programmed cell death induced: conclusion of Example 1, K562 and ImaR cells. The protocol:
(§5) The cells are lyzed and 35 μg of proteins are separated by SDS-PAGE (12 or 14% polyacrylamide gel) and analyzed by western blot with antibodies specific to each of the markers.
On the technique in general: Immunoblotting shows a protein as a band on a membrane.

The subject of series [8] is ImaR cells. The series is described as follows: western blot of apoptosis and autophagy markers, ImaR cells. It is filed as cell-based, human. The note with it: 24 hours; for expression of p62/SQSTM1: AICAR 1 mM, 82, 86, 112 at 2.5 μM, 15, 23, 191 at 10 μM; for LC3 cleavage (LC3-I into LC3-II): AICAR 1 mM, 82, 86 at 2.5 μM, 15, 23, 191, 49 at 10 μM. As to the method:
as §5

Series [9] relates to imatinib-resistant CML K562 cells. The series is described as follows: tumor growth of imatinib-resistant CML K562 cells in athymic nude mice. It is filed as in vivo. The note with it: 1 mg/kg; for Mean weight of the mice on the day of sacrifice: control group 18.63, in g (unit assumed); for Mass of tumors at the end of the campaign (% vs. control): sum of tumor masses on the day of sacrifice. The protocol:
The three compounds (86, 196 and 236) were tested at 1 mg/kg on the tumor growth of imatinib-resistant CML K562 cells in athymic nude mice. The tumors of the mice of each group are weighed on the day of sacrifice, and the sum of these masses constitutes a tumor growth index. This index is expressed as a percentage with respect to the growth of the control group (second line).

The mark [10] stands for this setting: 48 hours, Example 2 (Table 2 codes).
Where [11] appears, read: 24 or 48 hours, Example 1 (Table 1 codes).
Setting [12] is: 24 hours, imatinib 3 μM, 112 at 2.5 μM, 15, 23, 49 at 10 μM.

Consider `COC(=O)c1nnn([C@@H]2O[C@H](CO)[C@@H](O)[C@H]2O)c1I` [Compound 21, 1′-(4-methoxycarbonyl-5-iodo-[1,2,3]-triazol-1-yl)-β-D-ribofuranose], for which, in the series with K562 cells [1] (setting [10]), the viability at 500 µM was less than 20% and the half-maximal inhibitory concentration (IC50) was approximately 5 µM.
For `CCOC(=O)c1nnn([C@@H]2O[C@H](COC(C)=O)[C@@H](OC(C)=O)[C@H]2OC(C)=O)c1Cl` [Compound 15, 1′-(4-ethoxycarbonyl-5-chloro-[1,2,3]-triazol-1-yl)-2′,3′,5′-tri-O-acetyl-β-D-ribofuranose], the viability at 500 µM in the series on K562 cells [1] (24 hours) and in the series with ImaR cells [2] was less than 10% in each case. For the same compound, the IC50 in the series on K562 cells [1] (setting [11]) and with ImaR cells [2] was approximately 10 µM in each case. For the same compound, the “efficacy in dose-response experiment (number of viable cells)” value in the series on K562 cells [1] and in the series on ImaR cells [2] was “particularly effective” each time. The “proportion of cells in the G2/M phase” value in the series with K562 cells [3] and in the series on ImaR cells [4] was “increase” each time. Moreover, the “cells in phase G0/G1” value with K562 cells [3] (setting [12]) and with ImaR cells [4] (setting [12]) was “reduction” throughout. The “cells in the subG1 phase” value with K562 cells [3] (setting [12]) and in the series on ImaR cells [4] (setting [12]) was “very pronounced accumulation” in each case. The caspase-9 activity result is recorded as “activation” in the series with caspase-9 [5] (K562, 24 hours, imatinib 3 μM, 112 2.5 μM, 15 and 23 10 μM); “activation” with caspase-9 [6]. The “pathway relaying the induced apoptosis” value in the series on caspase-9 [5] (conclusion of Example 1, K562 and ImaR cells) is on record as “intrinsic pathway”. Moreover, the “expression of p62/SQSTM1” value in the series with K562 cells [7] (K562, 24 hours) is reported as “increase in the expression”; with ImaR cells [8] it was “increase in the expression”. For the same compound, the “LC3 cleavage (LC3-I into LC3-II)” value is recorded as “cleaved” in the series on K562 cells [7] (K562, 24 hours) and “cleaved” in the series with ImaR cells [8]. Further, the “PARP cleavage (fragment at 85 kDa)” value with K562 cells [7] (K562, 24 hours, imatinib 3 μM, 112 at 2.5 μM, 15, 23, 49 at 10 μM) was “appearance of the characteristic cleavage fragment at 85 kDa”; in the series on ImaR cells [8] (imatinib 3 μM, 112 at 2.5 μM, 15, 23, 49 at 10 μM), “appearance of the characteristic cleavage fragment at 85 kDa”. For the same compound, the “type of programmed cell death induced” value with K562 cells [7] is recorded as “combination of the two types of mechanisms”.
`CCOC(=O)c1nnn([C@@H]2O[C@H](COC(C)=O)[C@@H](OC(C)=O)[C@H]2OC(C)=O)c1C(=O)c1ccc(C)cc1` [Compound 32, 1′-(4-ethoxycarbonyl-5-p-toluoyl-[1,2,3]-triazol-1-yl)-2′,3′,5′-tri-O-acetyl-β-D-ribofuranose]: in the series on K562 cells [1] (setting [10]), the viability at 500 µM was less than 20%.
Still for that read-out and setting: in the case of `C#Cc1c(C(=O)OC)nnn1[C@@H]1O[C@H](CO)[C@@H](O)[C@H]1O` [Compound 29, 1′-(4-methoxycarbonyl-5-ethynyl-[1,2,3]-triazol-1-yl)-β-D-ribofuranose] it was less than 20%.
On to `CCOC(=O)c1nnn([C@@H]2O[C@H](COC(C)=O)[C@@H](OC(C)=O)[C@H]2OC(C)=O)c1-c1ccccc1` [Compound 86, 1′-(4-ethoxycarbonyl-5-phenyl-[1,2,3]-triazol-1-yl)-2′,3′,5′-tri-O-acetyl-β-D-ribofuranose], for which the viability at 500 µM with K562 cells [1] (24 hours) and in the series on ImaR cells [2] was less than 10% each time. In addition, the IC50 in the series with K562 cells [1] (setting [11]) and with ImaR cells [2] was approximately 2.5 µM each time. For the same compound, the “efficacy in dose-response experiment (number of viable cells)” value in the series on K562 cells [1] and in the series with ImaR cells [2] was “particularly effective” throughout. For the same compound, the “proportion of cells in the G2/M phase” value with K562 cells [3] and in the series on ImaR cells [4] was “increase” each time. In addition, the “expression of p62/SQSTM1” value in the series on K562 cells [7] (K562, 24 hours) was “increase in the expression”; with ImaR cells [8], “increase in the expression”. For the same compound, the “LC3 cleavage (LC3-I into LC3-II)” value in the series with K562 cells [7] (K562, 24 hours) is “cleaved”; in the series on ImaR cells [8], “cleaved”. Moreover, the “type of programmed cell death induced” value with K562 cells [7] is “autophagy alone”. The “Mean weight of the mice on the day of sacrifice” value (shortened to “Mean weight of the mice”) in [9] is on record as 18.43. For the same compound, the “Mass of tumors at the end of the campaign (% vs. control)” value (“Mass of tumors … (% vs. control)” for short) in series [9] is given as 69.6 % vs. control.
On to `CCOC(=O)c1nnn(Cc2ccc3ccccc3c2)c1I` [Compound 23], for which the viability at 500 µM in the series on K562 cells [1] (24 hours) and in the series on ImaR cells [2] was less than 10% in each case. The IC50 in the series on K562 cells [1] (setting [11]) was approximately 10 µM; in the series with K562 cells [1] (setting [10]), approximately 5 µM; with ImaR cells [2] it was approximately 10 µM.
With `CCOC(=O)C#Cc1c(C(=O)OCC)nnn1C1OC(COC(C)=O)C(OC(C)=O)C(OC(C)=O)C1OC(C)=O` [Compound 196, 1′-(4-ethoxycarbonyl-5-ethyl propiolate-[1,2,3]-triazol-1-yl)-2′,3′,4′,6′-tetra-O-acetyl-β-D-glucopyranose], in [9], the “inhibition of the tumor mass” value is on record as “around 60%”, the “Mean weight of the mice” value was 20.5 and the “Mass of tumors … (% vs. control)” value turned out to be 42 % vs. control.
`CCOC(=O)C#Cc1c(C(=O)OCC)nnn1Cc1ccc2ccccc2c1` [Compound 25]: the viability at 500 µM in the series with K562 cells [1] (24 hours) and in the series with ImaR cells [2] was less than 10% each time.
The compound `OC[C@H]1O[C@@H](n2nnc(-c3ccccc3)c2I)[C@H](O)[C@@H]1O` [Compound 24, 1′-(4-phenyl-5-iodo-[1,2,3]-triazol-1-yl)-β-D-ribofuranose] came in with a concentration for half-maximal inhibition (IC50) in the series with K562 cells [1] (setting [10]) of approximately 5 µM.
With `CCCCCCCC#Cc1c(CCCCCCC)nnn1[C@@H]1O[C@H](COC(C)=O)[C@@H](OC(C)=O)[C@H]1OC(C)=O` [Compound 176, 1′-(4-heptyl-5-(non-1-yn-1-yl)-[1,2,3]-triazol-1-yl)-2′,3′,5′-tri-O-acetyl-β-D-ribofuranose], the viability at 500 µM with K562 cells [1] (24 hours) and in the series with ImaR cells [2] was less than 10% each time.
In the case of `CCOC(=O)c1nnn([C@@H]2O[C@H](CO)[C@H]3OC(C)(C)O[C@H]32)c1-c1cccs1` [Compound 236, 1′-(4-ethoxycarbonyl-5-(2-thienyl)-[1,2,3]-triazol-1-yl)-2′,3′-O-isopropylidene-β-D-ribofuranose], in series [9], the “Mean weight of the mice” value is listed as 20.14 and the “Mass of tumors … (% vs. control)” value came out at 60.3 % vs. control.
`CCCCCCC(=O)c1c(C(=O)OCC)nnn1[C@@H]1O[C@H](COC(C)=O)[C@@H](OC(C)=O)[C@H]1OC(C)=O` [Compound 30, 1′-(4-ethoxycarbonyl-5-heptanoyl-[1,2,3]-triazol-1-yl)-2′,3′,5′-tri-O-acetyl-β-D-ribofuranose] registered an IC50 in the series with K562 cells [1] (setting [10]) of approximately 5 µM.

The term IC50 denotes the concentration at which inhibition is half-maximal. A high value points to lower potency.
